# Measurements reported in the NIST ThermoML archive (doi:10.1016/j.tca.2010.02.010).
# Numbers after ± are expanded uncertainties.
# How the values were obtained:
# [1] = 298.15 K; 101 kPa; Liquid; Vibrating tube method
# [2] = xn = mol fraction of the nth substance listed; conditions: 298.15 K, 101 kPa, Liquid, Vibrating tube method
smiles,measurement,setting,value
CCCCN [1-butanamine],mass density,[1],734.65 ± 0.21 kg/m3
CCCCN [1-butanamine] + CC(C)CO,mass density,[2]; x1 = 0.0482,796.16 ± 0.3 kg/m3
same,mass density,[2]; x1 = 0.0921,794.54 ± 0.29 kg/m3
same,mass density,[2]; x1 = 0.1855,790.79 ± 0.28 kg/m3
same,mass density,[2]; x1 = 0.2961,785.62 ± 0.26 kg/m3
same,mass density,[2]; x1 = 0.3674,781.71 ± 0.25 kg/m3
same,mass density,[2]; x1 = 0.4578,776.31 ± 0.25 kg/m3
same,mass density,[2]; x1 = 0.5021,773.52 ± 0.24 kg/m3
same,mass density,[2]; x1 = 0.5502,770.4 ± 0.24 kg/m3
same,mass density,[2]; x1 = 0.6313,764.59 ± 0.23 kg/m3
same,mass density,[2]; x1 = 0.7237,757.45 ± 0.22 kg/m3
same,mass density,[2]; x1 = 0.8191,749.75 ± 0.22 kg/m3
same,mass density,[2]; x1 = 0.9098,742.18 ± 0.21 kg/m3
same,mass density,[2]; x1 = 0.9418,739.52 ± 0.21 kg/m3
same,mass density,[2]; x1 = 1,734.65 ± 0.21 kg/m3
CCCCN [1-butanamine] + CCCCCl,mass density,[2]; x2 = 0,734.65 ± 0.21 kg/m3
same,mass density,[2]; x2 = 0.0428,740.64 ± 0.21 kg/m3
same,mass density,[2]; x2 = 0.0758,745.29 ± 0.21 kg/m3
same,mass density,[2]; x2 = 0.1564,756.7 ± 0.2 kg/m3
same,mass density,[2]; x2 = 0.2259,766.61 ± 0.2 kg/m3
same,mass density,[2]; x2 = 0.3163,779.6 ± 0.19 kg/m3
same,mass density,[2]; x2 = 0.3765,788.3 ± 0.19 kg/m3
same,mass density,[2]; x2 = 0.4412,797.66 ± 0.19 kg/m3
same,mass density,[2]; x2 = 0.4959,805.59 ± 0.18 kg/m3
same,mass density,[2]; x2 = 0.5804,817.91 ± 0.18 kg/m3
same,mass density,[2]; x2 = 0.6566,829.09 ± 0.17 kg/m3
same,mass density,[2]; x2 = 0.7272,839.52 ± 0.17 kg/m3
same,mass density,[2]; x2 = 0.7794,847.26 ± 0.17 kg/m3
same,mass density,[2]; x2 = 0.8465,857.31 ± 0.16 kg/m3
same,mass density,[2]; x2 = 0.8923,864.25 ± 0.16 kg/m3
same,mass density,[2]; x2 = 0.9437,872.12 ± 0.16 kg/m3
CCCCCl [1-chlorobutane],mass density,[1],880.86 ± 0.15 kg/m3
CCCCCl [1-chlorobutane] + CC(C)CO,mass density,[2]; x1 = 0.037,801.07 ± 0.3 kg/m3
same,mass density,[2]; x1 = 0.0748,804.35 ± 0.29 kg/m3
same,mass density,[2]; x1 = 0.1521,811.04 ± 0.28 kg/m3
same,mass density,[2]; x1 = 0.2331,817.97 ± 0.27 kg/m3
same,mass density,[2]; x1 = 0.3472,827.62 ± 0.25 kg/m3
same,mass density,[2]; x1 = 0.4266,834.27 ± 0.23 kg/m3
same,mass density,[2]; x1 = 0.4911,839.59 ± 0.22 kg/m3
same,mass density,[2]; x1 = 0.5817,847.01 ± 0.21 kg/m3
same,mass density,[2]; x1 = 0.6178,849.95 ± 0.2 kg/m3
same,mass density,[2]; x1 = 0.6855,855.42 ± 0.19 kg/m3
same,mass density,[2]; x1 = 0.7946,864.22 ± 0.18 kg/m3
same,mass density,[2]; x1 = 0.8885,871.78 ± 0.17 kg/m3
same,mass density,[2]; x1 = 0.9428,876.18 ± 0.16 kg/m3
same,mass density,[2]; x1 = 1,880.86 ± 0.15 kg/m3
CCCCCl [1-chlorobutane] + CCCCN,mass density,[2]; x1 = 1,880.86 ± 0.15 kg/m3
CC(C)CO [2-methyl-1-propanol],mass density,[1],797.84 ± 0.31 kg/m3
CC(C)CO [2-methyl-1-propanol] + CCCCCl,mass density,[2]; x2 = 0,797.84 ± 0.31 kg/m3
CC(C)CO [2-methyl-1-propanol] + CCCCN,mass density,[2]; x2 = 0,797.84 ± 0.31 kg/m3
